Like-named read-outs stand apart in the source and are kept apart here.

The target in one data set is T1, human mPGES-1 (Homo sapiens, UniProt O14684).
T1 construct: made in house; host or cells: Chinese hamster ovary-derived cells (FreeStyle CHO-S), transient transfection of pcDNA3.1(+)/human mPGES-1; microsome fraction
T1 sequence (O14684 1-152): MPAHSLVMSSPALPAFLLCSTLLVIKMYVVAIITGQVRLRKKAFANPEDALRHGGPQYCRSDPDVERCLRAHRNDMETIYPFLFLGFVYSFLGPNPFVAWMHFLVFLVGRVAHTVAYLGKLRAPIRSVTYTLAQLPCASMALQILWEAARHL
The experiment in a line: Evaluation of human mPGES-1 enzyme inhibitory activity (HTRF measurement of PGE2). It counts as biochemical. The conditions noted are these: IC50 value; microsome fraction of CHO-S cells expressing human mPGES-1, PGH2 substrate, PGE2 by HTRF; read-out: humans mPGES-1 enzyme inhibitory activity. In short, it runs like this: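 Enzyme source was a microsome fraction from CHO-S cells transfected with human mPGES-1, diluted to 5 μg/mL protein in reduced GSH (12.5 mmol/L KPB), preincubated with compound for 10 min at room temperature with 2% final DMSO. Reaction started with PGH2 and run 45 seconds at room temperature. PGE2 measured by HTRF.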
(In general: TR-FRET usually uses a lanthanide donor and a delayed reading to cut background.)

In the next data set the test system is A549 cell. The experiment in a line: Evaluation of PGE2 production inhibitory action using A549 cell (IL-1β stimulated). It counts as cell-based, human. A digest of the protocol:
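A549 cells (human lung cancer) in F-12K with 2% FBS were preincubated with test article for 30 min, then stimulated with IL-1β (1 ng/mL final) for 18 hr at 37 °C; 0.5% DMSO final. Supernatant PGE2 was measured by HTRF against a standard curve; inhibition is relative to vehicle and unstimulated blank wells.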

Data set [1] can be described thus: Measurement of solubility in Britton-Robinson buffer solution (pH 8.5) containing 0.5 W/V % polysorbate 80. The note with it: Britton-Robinson buffer pH 8.5 containing 0.5 W/V % polysorbate 80, 20° C., 18 hr. The class given is physicochemical. As to the method: Experimental Example 5: Measurement of Solubility
(2) Britton-Robinson Buffer Solution (pH 8.5) Containing 0.5 W/V % Polysorbate 80
The test article was weighted in glass microtube, and dispersed in Britton-Robinson buffer solution (pH 8.5, 1.5 mL) containing 0.5 W/V % polysorbate 80 to prepare a suspension. The suspension was shaked at 20° C. for 18 hr, and filtered through a membrane filter (0.45 μm), and the filtrate was used as a sample.
(3) Preparation of Standard Solution and Sample Solution, and Measurement of Solubility
Sample solution was prepared by appropriately diluting sample with a mixture of water/acetonitrile (1:1). Standard solution was prepared by precisely weighting the test article, and then diluting the test article with a mixture of water/acetonitrile (1:1). The standard solution and sample solution were analyzed by liquid chromatography, and the test article content of the sample solution was calculated according to external standard method, based on which the solubility was determined.

[2] abbreviates: Homo sapiens, A549, A549 cell, recombinant human IL-1β stimulation, read-out: cell PGE2 production inhibitory activity (IC50 value).
Where [3] appears, read: Homo sapiens, A549, 18 h, IC50 value, A549 cell, recombinant IL-1β 1 ng/mL, 18 hr, PGE2 in supernatant, read-out: cell PGE2 production inhibitory activity.

For `CCC[C@@H](C)Oc1ccc(-c2nc(O)nc(-c3cc(CNC(=O)C(CC)(CC)OC)ccc3Cl)n2)cn1` [Example 79, 2-ethyl-N-(4-chloro-3-{4-hydroxy-6-[6-((R)-1-methylbutoxy)pyridin-3-yl]-1,3,5-triazin-2-yl}benzyl)-2-methoxybutanamide], the IC50 at human mPGES-1 was determined as 4.6 nM; in the data set with A549 cell (setting [2]), 2.6 nM. In addition, the “0.5% polysorbate 80 solubility (%) at pH 8.5” value (shortened to “0.5% polysorbate 80 solubility”) in data set [1] is 0.157%.

On to `CO[C@](C)(C(=O)NCc1ccc(Cl)c(-c2nc(O)nc(-c3cccc(C(C)(C)C)c3)n2)c1)C(F)(F)F` [Example 66, (R)—N-{3-[4-(3-tert-butylphenyl)-6-hydroxy-1,3,5-triazin-2-yl]-4-chlorobenzyl}-3,3,3-trifluoro-2-methoxy-2-methylpropionamide], for which the IC50 at human mPGES-1 stood at 0.7 nM; with A549 cell (setting [2]), 3.8 nM. For the same molecule, the “0.5% polysorbate 80 solubility” value in data set [1] is 0.136%.

Take `CC(C)c1cccc(-c2nc(O)nc(-c3cc(CNC(=O)C4(C(F)(F)F)CCCCC4)ccc3Cl)n2)c1` [Example 71, 1-trifluoromethylcyclohexanecarboxylic acid 4-chloro-3-[4-hydroxy-6-(3-isopropylphenyl)-1,3,5-triazin-2-yl]benzylamide]: the IC50 was 0.7 nM at human mPGES-1 and 3.4 nM in the data set on A549 cell (setting [2]). Besides, the “0.5% polysorbate 80 solubility” value in data set [1] is recorded as 0.057%.

Regarding `CCC[C@H](C)Oc1ccc(-c2nc(O)nc(-c3cc(CNC(=O)C(CC)(CC)CF)ccc3Cl)n2)cn1` [Example 131], the IC50 came to 2.9 nM at human mPGES-1 and 1.9 nM with A549 cell (setting [2]). For the same molecule, the “0.5% polysorbate 80 solubility” value in data set [1] was 0.109%.

On to `CCCCCCOc1ccc(-c2nc(O)nc(-c3cc(CNC(=O)C(C)(C)OC)ccc3Cl)n2)cn1` [Example 81, N-{4-chloro-3-[4-(6-hexyloxypyridin-3-yl)-6-hydroxy-1,3,5-triazin-2-yl]benzyl}-2-methoxy-2-methylpropionamide], for which the figures for the IC50 at human mPGES-1 and with A549 cell (setting [2]) were 2.1 nM and 5 nM, respectively. Besides, the “0.5% polysorbate 80 solubility” value in data set [1] came out at 0.071%.

With `CC(C)(C)c1cccc(-c2nc(O)nc(-c3cc(CNC(=O)C4(C(F)(F)F)CCCCC4)ccc3Cl)n2)c1` [Example 107, 1-trifluoromethylcyclohexanecarboxylic acid 3-[4-(3-tert-butylphenyl)-6-hydroxy-1,3,5-triazin-2-yl]-4-chlorobenzylamide], the IC50 amounted to 2.6 nM at human mPGES-1 and 2.1 nM in the data set with A549 cell (setting [2]). For the same molecule, the “0.5% polysorbate 80 solubility” value in data set [1] stood at 0.032%.

For the molecule `CO[C@](C)(C(=O)NCc1ccc(Cl)c(-c2nc(O)nc(-c3cccc(C4(C)CC4)c3)n2)c1)C(F)(F)F` [Example 65], the IC50 at human mPGES-1 worked out at 1.1 nM; with A549 cell (setting [2]) it was 9.7 nM.

In the case of `CCC(OC)(C(=O)NCc1ccc(Cl)c(-c2nc(O)nc(-c3ccc(Cl)c(C(C)C)c3)n2)c1)C(F)(F)F` (stereo not drawn) [Example 139], the IC50 at human mPGES-1 stood at 5.4 nM; in the data set with A549 cell (A549 cell, recombinant human IL-1β stimulation, read-out: cell PGE2 production inhibitory activity (IC50 value)), 2.1 nM.

As for `CCCCCCOc1ccc(-c2nc(O)nc(-c3cc(CNC(=O)[C@@](C)(OC)C(F)(F)F)ccc3Cl)n2)cn1` [Example 83], the IC50 came to 5 nM at human mPGES-1 and 2.7 nM in the data set with A549 cell (setting [2]).

For `CCC[C@@H](C)Oc1ccc(-c2nc(O)nc(-c3cc(CNC(=O)C4(CF)CCCCC4)ccc3Cl)n2)cn1` [Example 128], the IC50 at human mPGES-1 was 2.2 nM; in the data set on A549 cell (setting [2]) it was 1.3 nM.

`CCC[C@H](C)Oc1ccc(-c2nc(O)nc(-c3cc(CNC(=O)C4(CF)CCCCCC4)ccc3Cl)n2)cn1` [Example 141]: the values for the IC50 at human mPGES-1 and in the data set with A549 cell (setting [2]) were 14 nM and 3.8 nM, respectively.

In the case of `CCC[C@@H](C)Oc1ccc(-c2nc(O)nc(-c3cc(CNC(=O)C4(C(F)F)CCCC4)ccc3Cl)n2)cn1` [Example 126], the IC50 at human mPGES-1 is 3.1 nM; in the data set on A549 cell (setting [2]), 2.5 nM.

For the molecule `CCCOc1cccc(-c2nc(O)nc(-c3cc(CNC(=O)C(C)(C)C(F)(F)F)ccc3Cl)n2)c1` [Example 1], the IC50 at human mPGES-1 worked out at 0.9 nM; with A549 cell (setting [3]), 27 nM.

Consider `CCC(CC)(C(=O)NCc1ccc(Cl)c(-c2nc(O)nc(-c3cccc(C4(C)CC4)c3)n2)c1)C(F)F` [Example 118], for which the IC50 amounted to 0.4 nM on human mPGES-1 and 17 nM with A549 cell (setting [2]).

Turning to `CC1(c2cccc(-c3nc(O)nc(-c4cc(CNC(=O)C5(CF)CCCCCC5)ccc4Cl)n3)c2)CC1` [Example 113], the IC50 stood at 1.8 nM on human mPGES-1 and 95 nM in the data set on A549 cell (setting [2]).

For `CC(C)c1cccc(-c2nc(O)nc(-c3cc(CNC(=O)C4(F)CCCC4)ccc3Cl)n2)c1` [Example 41], the IC50 was found to be 1.3 nM on human mPGES-1 and 23 nM in the data set on A549 cell (setting [3]).

On to `CC(C)c1cccc(-c2nc(O)nc(-c3cc(CNC(=O)C4(CF)CCCCCC4)ccc3Cl)n2)c1` [Example 111], for which the IC50 on human mPGES-1 is 1.5 nM; with A549 cell (setting [2]), 54 nM.

For `CC(C)c1cccc(-c2nc(O)nc(-c3cc(CNC(=O)C(C)(C)CF)ccc3Cl)n2)c1` [Example 70], the IC50 at human mPGES-1 came to 1.5 nM; in the data set on A549 cell (setting [2]), 56 nM.

With `CCC(OC)(C(=O)NCc1ccc(Cl)c(-c2nc(O)nc(-c3ccc(Cl)c(C(C)C)c3)n2)c1)C(F)(F)F` (stereo not drawn) [Example 137], the IC50 at human mPGES-1 was 4.7 nM; with A549 cell (setting [2]), 2.6 nM.

For the molecule `CCC[C@H](C)Oc1ccc(-c2nc(O)nc(-c3cc(CNC(=O)C(CC)(OC)C(F)(F)F)ccc3Cl)n2)cn1` (single isomer, unassigned) [Example 144], the IC50 worked out at 3.9 nM at human mPGES-1 and 1.6 nM in the data set on A549 cell (setting [2]).

As for `CCC[C@H](C)Oc1ccc(-c2nc(O)nc(-c3cc(CNC(=O)C(CC)(CC)OC)ccc3Cl)n2)cn1` [Example 103], the values for the IC50 on human mPGES-1 and in the data set with A549 cell (setting [2]) were 2.4 nM and 6.5 nM, respectively.

Take `CC(C)(C)COc1ccc(-c2nc(O)nc(-c3cc(CNC(=O)C(C)(C)C(F)(F)F)ccc3Cl)n2)cn1` [Example 19]: the IC50 on human mPGES-1 is 3.3 nM; with A549 cell (setting [3]), 1.7 nM.

Turning to `CC(C)(C)c1cc(-c2nc(O)nc(-c3cc(CNC(=O)C(C)(C)C(F)(F)F)ccc3Cl)n2)ccc1Cl` [Example 87], the IC50 was determined as 5.2 nM at human mPGES-1 and 2.9 nM in the data set with A549 cell (setting [2]).

Turning to `CCC(C)(C)C(=O)NCc1ccc(Cl)c(-c2nc(O)nc(-c3cccc(C(C)C)c3)n2)c1` [Example 6], the IC50 turned out to be 0.4 nM on human mPGES-1 and 23 nM with A549 cell (setting [3]).

In the case of `CCC[C@H](C)Oc1ccc(-c2nc(O)nc(-c3cc(CNC(=O)C(C)(C)CF)ccc3Cl)n2)cn1` [Example 105], the IC50 at human mPGES-1 came to 1.5 nM; with A549 cell (setting [2]) it was 15 nM.

For `CCC[C@H](C)Oc1ccc(-c2nc(O)nc(-c3cc(CNC(=O)C4(C(F)(F)F)CCCC4)ccc3Cl)n2)cn1` [Example 140], the IC50 on human mPGES-1 turned out to be 10 nM; in the data set on A549 cell (setting [2]), 0.8 nM.

As to `COc1ccc(-c2nc(O)nc(-c3cc(CNC(=O)C(C)(C)C(F)(F)F)ccc3Cl)n2)cc1C(C)(C)C` [Example 36], the IC50 on human mPGES-1 came out at 5.8 nM; with A549 cell (setting [3]), 10 nM.

As for `CO[C@@](C)(C(=O)NCc1ccc(Cl)c(-c2nc(O)nc(-c3cccc(C(C)C)c3)n2)c1)C(F)(F)F` [Example 74], the IC50 on human mPGES-1 stood at 1.3 nM; in the data set with A549 cell (setting [2]) it was 29 nM.

Consider `Cc1ccc(-c2nc(O)nc(-c3cc(CNC(=O)C(C)(C)C(F)(F)F)ccc3Cl)n2)cc1C(C)(C)C` [Example 54], for which the IC50 at human mPGES-1 was 0.5 nM; in the data set with A549 cell (setting [3]), 2.9 nM.

As to `CC(C)c1cc(-c2nc(O)nc(-c3cc(CNC(=O)C(C)(C(F)(F)F)C(F)(F)F)ccc3Cl)n2)ccc1Cl` [Example 88], the IC50 at human mPGES-1 was found to be 19 nM; in the data set with A549 cell (setting [2]), 1.6 nM.

Values taken from US12492182B2, “Hydroxytriazine compounds and pharmaceutical use thereof” (Japan Tobacco Inc., priority 2015, dated 2025).
